Reference: patent US11530198B2, “Compositions and methods for treating infections” (priority 2016, dated 2022)
Like-named read-outs stand apart in the source and are kept apart here.

Tests used:
hDHFR = hDHFR (Homo sapiens (Human), UniProt P00374); assay: DHFR inhibition assay (diaphorase/resazurin coupled, fluorescence of resorufin), human DHFR; format: biochemical
[1] = molecular target: P. falciparum DHFR (pfDHFR) (Plasmodium falciparum (isolate K1 / Thailand), UniProt P13922); assay: DHFR inhibition assay (diaphorase/resazurin coupled), P. falciparum DHFR; format: biochemical; conditions: for pfDHFR pIC50-DHFR primary assay: Table 15, P. falciparum DHFR
T. cruzi DHFR (tcDHFR) = T. cruzi DHFR (tcDHFR) (Trypanosoma cruzi, UniProt Q27793); assay: DHFR inhibition assay (diaphorase/resazurin coupled), T. cruzi DHFR; format: biochemical; conditions: Table 12; T. cruzi DHFR
T. brucei DHFR (tbDHFR) = T. brucei DHFR (tbDHFR) (Trypanosoma brucei brucei, UniProt Q27783); assay: DHFR inhibition assay (diaphorase/resazurin coupled), T. brucei DHFR; format: biochemical; conditions: Table 13; T. brucei DHFR
T. gondii DHFR (tgDHFR) = T. gondii DHFR (tgDHFR) (Toxoplasma gondii, UniProt Q07422)
L. major DHFR (1mDHFR) = L. major DHFR (1mDHFR) (Leishmania major, UniProt P07382); format: biochemical; conditions: Table 14; L. major DHFR

hDHFR, sequence (P00374 whole entry): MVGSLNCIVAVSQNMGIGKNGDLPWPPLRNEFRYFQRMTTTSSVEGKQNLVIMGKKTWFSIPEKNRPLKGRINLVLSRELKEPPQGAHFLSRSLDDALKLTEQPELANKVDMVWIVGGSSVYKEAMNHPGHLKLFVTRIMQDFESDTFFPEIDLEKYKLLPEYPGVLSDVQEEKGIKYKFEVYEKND

Compound | hDHFR pIC50-DHFR primary assay (hDHFR; Table 11) | hDHFR pIC50-DHFR primary assay (hDHFR; Table 12) | hDHFR pIC50-DHFR primary assay (hDHFR; Table 13) | hDHFR pIC50-DHFR primary assay (hDHFR; Table 14) | hDHFR pIC50-DHFR primary assay (hDHFR; Table 15) | pfDHFR pIC50-DHFR primary assay [1] | tcDHFR pIC50-DHFR primary assay (T. cruzi DHFR (tcDHFR)) | tbDHFR pIC50-DHFR primary assay (T. brucei DHFR (tbDHFR)) | tgDHFR pIC50-DHFR primary assay (T. gondii DHFR (tgDHFR)) | mDHFR pIC50-DHFR primary assay (L. major DHFR (1mDHFR)) | Average DHFR selectivity (h/pf)*-DHFR IC50 ([1]; hDHFR IC50/pfDHFR IC50) | Average DHFR selectivity (h/tg) (T. gondii DHFR (tgDHFR); hDHFR IC50/tgDHFR IC50) | tgDHFR pIC50-DHFR primary assay (T. gondii DHFR (tgDHFR); Table 11, T. gondii DHFR)
Nc1ncc(N2CCN(c3ccccc3)CC2)c(N)n1 [Compound 4, 5-(4-phenylpiperazin-1-yl)pyrimidine-2,4-diamine] | 4.90 | 4.90 | 4.90 | 4.90 | 4.90 | 8.72 | 7.04 | 7.50 | 6.68 | 6.30 | – | – | –
CCCc1nc(N)nc(N)c1N1CCN(c2ccccc2)CC1 [Compound 49, 5-(4-phenylpiperazin-1-yl)-6-propylpyrimidine-2,4-diamine] | – | – | – | – | – | 7.85 | – | – | – | – | 806 | 501.19 | –
COc1ncc(-c2cccc(N3CCN(c4cnc(N)nc4N)CC3)c2)cn1 [Compound 78, 5-(4-(3-(2-methoxypyrimidin-5-yl)phenyl)piperazin-1-yl)pyrimidine-2,4-diamine] | 5.92 | – | 6.05 | – | 6.04 | 9.15 | – | 8.68 | – | – | – | – | 8.49
